# Data: patent US10844017B2, “Biaryl compound, preparation method and use thereof” (FUDAN UNIVERSITY, priority 2017, dated 2020)
# Molecular target: T1, RORγ receptor (B-RORγ LBD / Bioin-SRC1) (Homo sapiens, UniProt P51449)
# T1 construct: 40 nM B-RORγ LBD solution
# T1 sequence (P51449 269-508 limits assumed): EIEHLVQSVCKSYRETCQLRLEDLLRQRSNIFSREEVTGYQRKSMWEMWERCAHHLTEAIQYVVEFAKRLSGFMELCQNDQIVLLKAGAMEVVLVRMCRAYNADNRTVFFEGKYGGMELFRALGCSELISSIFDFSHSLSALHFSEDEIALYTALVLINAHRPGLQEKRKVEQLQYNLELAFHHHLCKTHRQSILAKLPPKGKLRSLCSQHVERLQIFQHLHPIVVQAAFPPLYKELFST
# T1 sequence (Q15788 676-700 partner limits assumed): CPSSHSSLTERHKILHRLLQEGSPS
# Experiment: Determination of agonistic activities on RORγ receptors in vitro (dual FRET)
# Format: biochemical
# Conditions: average of at least two independent experiments
# Protocol: Determination of Agonistic Activities of Compounds on RORγ Receptors In Vitro The agonistic activities of compounds described herein on RORγ receptor were determined by dual fluorescence resonance energy transfer (dual FRET) experiments. The agonistic activity was expressed by half maximum effect concentration (EC50).
# 1) Preparation of RORγ Assay Buffer
# 100 mL of buffer solution was well mixed with […] DTT for use.
# 2) Preparation of Solutions of Compounds
# 3) Preparation of protein mixtures a) 40 nM B-RORγ LBD solution was mixed well with 20 nM SA-APC solution and incubated for 15 minutes at room temperature. Then the resulting mixture was further mixed well with 400 nM Biotin and incubated for another 10 minutes at room temperature. […]
# b) 40 nM Bioin-SRC1 solution was mixed well with 10 nM SA-eu solution and was incubated for 15 minutes at room temperature. Then the resulting mixture was further mixed well with 200 nM Biotin and was incubated for another 10 minutes at room temperature. […]
# d) A mixture (25 μL) of B-RORγ LBD/SA-APC and Bioin-SRC1/SA-eu together with a test compound was added to one of the wells of a 384-well plate, and then the plate was centrifuged for one minute at 1000 rpm, and incubated at room temperature for one hour. The data were read on an Envision microplate detector and EC50 values were calculated.
row,EC50,Structure (SMILES)
1,10 to 50 nM,"CCC(=O)Nc1cc(Cl)c(-c2ccc(CC(C)C)c(C#N)c2)c(Cl)c1 [Example 1, N-(2,6-Dichloro-3′-cyano-4′-isobutyl-[1,1′-biphenyl]-4-yl)propionamide]"
2,50 to 100 nM,"CC(C)Cc1ccc(-c2c(Cl)cc(NC(=O)c3ccccc3)cc2Cl)cc1C#N [Example 3, N-(2,6-Dichloro-3′-cyano-4′-isobutyl-[1,1′-biphenyl]-4-yl)benzamide]"
3,10 to 50 nM,"CC(C)Cc1ccc(-c2c(Cl)cc(NC(=O)Cc3ccccc3)cc2Cl)cc1C#N [Example 7, N-(2,6-Dichloro-3′-cyano-4′-isobutyl-[1,1′-biphenyl]-4-yl)-2-phenylacetamide]"
4,10 to 50 nM,"CC(C)Cc1ccc(-c2c(Cl)cc(NC(=O)Cc3ccc(=O)[nH]c3)cc2Cl)cc1C#N [Example 8, N-(2,6-Dichloro-3′-cyano-4′-isobutyl-[1,1′-biphenyl]-4-yl)-2-(6-oxo-1,6-dihydropyridin-3-yl)acetamide]"
5,10 to 50 nM,"CC(C)Cc1ccc(-c2c(Cl)cc(NC(=O)Cc3ccc(C#N)cc3)cc2Cl)cc1C#N [Example 10, 2-(4-Cyanophenyl)-N-(2,6-dichloro-3′-cyano-4′-isobutyl-[1,1′-biphenyl]-4-yl)acetamide]"
6,10 to 50 nM,"CC(C)Cc1ccc(-c2c(Cl)cc(NC(=O)Cc3cccc(C#N)c3)cc2Cl)cc1C#N [Example 12, 2-(3-cyanophenyl)-N-(2,6-dichloro-3′-cyano-4′-isobutyl-[1,1′-biphenyl]-4-yl)acetamide]"
7,10 to 50 nM,"CC(C)Cc1ccc(-c2c(Cl)cc(NC(=O)Cc3cccnc3)cc2Cl)cc1C#N [Example 14, N-(2,6-Dichloro-3′-cyano-4′-isobutyl-[1,1′-biphenyl]-4-yl)-2-(pyridin-3-yl)acetamide]"
8,10 to 50 nM,"CC(C)Cc1ccc(-c2c(Cl)cc(NC(=O)Cc3ccncc3)cc2Cl)cc1C#N [Example 15, N-(2,6-Dichloro-3′-cyano-4′-isobutyl-[1,1′-biphenyl]-4-yl)-2-(pyridin-4-yl)acetamide]"
9,10 to 50 nM,"CC(C)Cc1ccc(-c2c(Cl)cc(NC(=O)Cc3cccc(S(C)(=O)=O)c3)cc2Cl)cc1C#N [Example 18, N-(2,6-Dichloro-3′-cyano-4′-isobutyl-[1,1′-biphenyl]-4-yl)-2-(3-(methylsulfonyl)phenyl)acetamide]"
10,10 to 50 nM,"CNS(=O)(=O)c1ccc(CC(=O)Nc2cc(Cl)c(-c3ccc(CC(C)C)c(C#N)c3)c(Cl)c2)cc1 [Example 22, N-(2,6-Dichloro-3′-cyano-4′-isobutyl-[1,1′-biphenyl]-4-yl)-2-(4-(N-methylsulfamoyl)phenyl)acetamide]"
11,10 to 50 nM,"CC(C)Cc1ccc(-c2c(Cl)cc(NC(=O)Cc3ccc(P(C)(C)=O)cc3)cc2Cl)cc1C#N [Example 23, N-(2,6-Dichloro-3′-cyano-4′-isobutyl-[1,1′-biphenyl]-4-yl)-2-(4-(dimethylphosphoryl)phenyl)acetamide]"
12,< 10 nM,"CC(C)Cc1ccc(-c2c(Cl)cc(NC(=O)Cc3ccc(CC(=O)O)cc3)cc2Cl)cc1C#N [Example 25, 2-(4-(2-((2,6-Dichloro-3′-cyano-4′-isobutyl-[1,1′-biphenyl]-4-yl)amino)-2-oxoethyl)phenyl)acetic acid]"
13,10 to 50 nM,"CCS(=O)(=O)c1ccc(CC(=O)Nc2cc(Cl)c(-c3ccc(CC(C)C)c(F)c3)c(Cl)c2)cc1 [Example 27, N-(2,6-Dichloro-3′-fluoro-4′-isobutyl-[1,1′-biphenyl]-4-yl)-2-(4-(ethylsulfonyl)phenyl)acetamide]"
14,50 to 100 nM,"CC(C)Cc1ccc(-c2c(Cl)cc(C(=O)NCc3ccc(S(C)(=O)=O)cc3)cc2Cl)cc1C#N [Example 48, 2,6-Dichloro-3′-cyano-4′-isobutyl-N-(4-(methylsulfonyl)benzyl)-[1,1′-biphenyl]-4-carboxamide]"
15,10 to 50 nM,"CC(C)Cc1ccc(-c2c(Cl)cc(NC(=O)NCc3ccc(S(C)(=O)=O)cc3)cc2Cl)cc1C#N [Example 54, 1-(2,6-Dichloro-3′-cyano-4′-isobutyl-[1,1′-biphenyl]-4-yl)-3-(4-(methylsulfonyl)benzyl)urea]"
16,10 to 50 nM,"CC(C)Cc1ccc(-c2c(Cl)cc(NC(=O)NCc3ccc(S(C)(=O)=O)cn3)cc2Cl)cc1C#N [Example 56, 1-(2,6-Dichloro-3′-cyano-4′-isobutyl-[1,1′-biphenyl]-4-yl)-3-((5-(methylsulfonyl)pyridin-2-yl)methyl)urea]"
17,10 to 50 nM,"CC(C)Cc1ccc(-c2c(Cl)cc(NC(=O)NCc3ccc(CC(=O)O)cc3)cc2Cl)cc1C#N [Example 57, 2-(4-((3-(2,6-Dichloro-3′-cyano-4′-isobutyl-[1,1′-biphenyl]-4-yl)ureido)methyl)phenyl)acetic acid]"
18,10 to 50 nM,"CN(C)Cc1ccc(-c2c(Cl)cc(NC(=O)NCc3ccc(S(C)(=O)=O)cc3)cc2Cl)cc1C#N [Example 59, 1-(2,6-Dichloro-3′-cyano-4′-((dimethylamino)methyl)-[1,1′-biphenyl]-4-yl)-3-(4-(methylsulfonyl)benzyl)urea]"

# The remaining lines, values behind:
row,Structure (SMILES),EC50
1,"CC(C)CC(=O)Nc1cc(Cl)c(-c2ccc(CC(C)C)c(C#N)c2)c(Cl)c1 [Example 4, N-(2,6-dichloro-3′-cyano-4′-isobutyl-[1,1′-biphenyl]-4-yl)-3-methylbutanamide]",10 to 50 nM
2,"CC(C)Cc1ccc(-c2c(Cl)cc(NC(=O)Cc3ccnn3C)cc2Cl)cc1C#N [Example 9B, N-(2,6-dichloro-3′-cyano-4′-isobutyl-[1,1′-biphenyl]-4-yl)-2-(1-methyl-1H-pyrazol-5-yl)acetamide]",10 to 50 nM
3,"CCS(=O)(=O)c1ccc(CC(=O)Nc2cc(Cl)c(-c3ccc(CC(C)C)cc3C#N)c(Cl)c2)cc1 [Example 28, N-(2,6-dichloro-2′-cyano-4′-isobutyl-[1,1′-biphenyl]-4-yl)-2-(4-(ethylsulfonyl)phenyl)acetamide]",10 to 50 nM
4,"CCS(=O)(=O)c1ccc(CC(=O)Nc2ccc(-c3ccc(CC(C)C)cc3C(F)(F)F)c(Cl)c2)cc1 [Example 29, N-(2-chloro-4′-isobutyl-2′-(trifluoromethyl)-[1,1′-biphenyl]-4-yl)-2-(4-(ethylsulfonyl)phenyl)acetamide]",10 to 50 nM
5,"CCS(=O)(=O)c1ccc(CC(=O)Nc2ccc(-c3ccc(CC(C)C)cc3OC(F)(F)F)c(Cl)c2)cc1 [Example 30, N-(2-Chloro-4′-isobutyl-2′-(trifluoromethoxy)-[1,1′-biphenyl]-4-yl)-2-(4-(ethylsulfonyl)phenyl)acetamide]",10 to 50 nM
6,"CCS(=O)(=O)c1ccc(CC(=O)Nc2ccc(-c3ccc(CC(C)C)c(C#N)c3)c(Cl)c2)cc1 [Example 31, N-(2-Chloro-3′-cyano-4′-isobutyl-[1,1′-biphenyl]-4-yl)-2-(4-(ethylsulfonyl)phenyl)acetamide]",< 10 nM
7,"CCS(=O)(=O)c1ccc(CC(=O)Nc2cc(Cl)c(-c3ccc(CN4CCC4)c(C#N)c3)c(Cl)c2)cc1 [Example 38, N-(4′-(Azetidin-1-ylmethyl)-2,6-dichloro-3′-cyano-[1,1′-biphenyl]-4-yl)-2-(4-(ethylsulfonyl)phenyl)acetamide]",> 1000 nM
8,"CCS(=O)(=O)c1ccc(CC(=O)Nc2cc(Cl)c(-c3ccc(CN4CCCC4)c(C#N)c3)c(Cl)c2)cc1 [Example 39, N-(2,6-Dichloro-3′-cyano-4′-(pyrrolidin-1-ylmethyl)-[1,1′-biphenyl]-4-yl)-2-(4-(ethylsulfonyl)phenyl)acetamide]",10 to 50 nM
9,"CCS(=O)(=O)c1ccc(CC(=O)Nc2cc(Cl)c(-c3ccc(C=C4CCC4)c(C#N)c3)c(Cl)c2)cc1 [Example 44, N-(2,6-Dichloro-3′-cyano-4′-(cyclobutylidenemethyl)-[1,1′-biphenyl]-4-yl)-2-(4-(ethylsulfonyl)phenyl)acetamide]",10 to 50 nM
10,"CCS(=O)(=O)c1ccc(CC(=O)Nc2cc(Cl)c(-c3ccc(CC4CCCC4)c(C#N)c3)c(Cl)c2)cc1 [Example 45, N-(2,6-Dichloro-3′-cyano-4′-(cyclopentylmethyl)-[1,1′-biphenyl]-4-yl)-2-(4-(ethylsulfonyl)phenyl)acetamide]",10 to 50 nM
11,"CC(C)Cc1ccc(-c2c(Cl)cc(C(=O)NCc3ccc(S(C)(=O)=O)cn3)cc2Cl)cc1C#N [Example 50, 2,6-Dichloro-3′-cyano-4′-isobutyl-N-((5-(methylsulfonyl)pyridin-2-yl)methyl)-[1,1′-biphenyl]-4-carboxamide]",50 to 100 nM
12,"CCS(=O)(=O)c1ccc(CNC(=O)c2cc(Cl)c(-c3ccc(CN(C)C)c(C#N)c3)c(Cl)c2)cc1 [Example 51, 2,6-Dichloro-3′-cyano-4′-((dimethylamino)methyl)-N-(4-(ethylsulfonyl)benzyl)-[1,1′-biphenyl]-4-carboxamide]",100 to 500 nM
13,"CN(C)Cc1ccc(-c2c(Cl)cc(C(=O)NCc3ccc(S(C)(=O)=O)cc3)cc2Cl)cc1C#N [Example 52, 2,6-Dichloro-3′-cyano-4′-((dimethylamino)methyl)-N-(4-(methylsulfonyl)benzyl)-[1,1′-biphenyl]-4-carboxamide]",500 to 1000 nM
